How the values were obtained:
[1] = molecular target: T1, GtfB (Streptococcus mutans, UniProt P08987); assay: Binding study (Octet, details in supplement); weak inactive analog; set-up: catalytic domain, residues 268 aa–1074 aa
Target sequence in this assay (P08987 268-1074): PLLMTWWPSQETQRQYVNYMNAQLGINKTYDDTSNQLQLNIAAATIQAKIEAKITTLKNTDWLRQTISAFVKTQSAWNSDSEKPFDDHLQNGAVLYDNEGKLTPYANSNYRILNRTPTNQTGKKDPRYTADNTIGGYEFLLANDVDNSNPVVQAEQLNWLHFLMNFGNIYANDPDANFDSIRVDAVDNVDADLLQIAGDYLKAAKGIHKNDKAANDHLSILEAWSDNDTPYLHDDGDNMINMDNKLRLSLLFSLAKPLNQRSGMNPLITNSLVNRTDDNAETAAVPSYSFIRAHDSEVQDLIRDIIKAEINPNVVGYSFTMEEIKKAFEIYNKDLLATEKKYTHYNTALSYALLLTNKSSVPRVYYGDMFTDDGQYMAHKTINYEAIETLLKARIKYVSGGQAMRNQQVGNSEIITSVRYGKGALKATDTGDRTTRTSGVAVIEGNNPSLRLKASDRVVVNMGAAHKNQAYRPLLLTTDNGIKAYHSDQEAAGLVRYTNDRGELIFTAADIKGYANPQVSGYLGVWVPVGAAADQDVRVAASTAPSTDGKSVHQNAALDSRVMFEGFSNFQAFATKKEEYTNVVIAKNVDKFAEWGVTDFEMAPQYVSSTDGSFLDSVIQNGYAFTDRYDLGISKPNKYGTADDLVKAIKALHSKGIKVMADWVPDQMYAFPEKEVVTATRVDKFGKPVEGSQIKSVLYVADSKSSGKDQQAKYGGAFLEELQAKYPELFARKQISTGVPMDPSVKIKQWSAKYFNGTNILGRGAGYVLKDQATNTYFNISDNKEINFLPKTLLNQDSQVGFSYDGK

[2] = molecular target: T1, GtfB; assay: SDS-PAGE in-gel zymographic glucan-production assay at […]; format: cell-based; set-up: native GtfB from culture supernatant of S. mutans GtfCD double mutant; details: read-out: % inhibition at 25 μM
Target sequence in this assay (P08987 35-1476): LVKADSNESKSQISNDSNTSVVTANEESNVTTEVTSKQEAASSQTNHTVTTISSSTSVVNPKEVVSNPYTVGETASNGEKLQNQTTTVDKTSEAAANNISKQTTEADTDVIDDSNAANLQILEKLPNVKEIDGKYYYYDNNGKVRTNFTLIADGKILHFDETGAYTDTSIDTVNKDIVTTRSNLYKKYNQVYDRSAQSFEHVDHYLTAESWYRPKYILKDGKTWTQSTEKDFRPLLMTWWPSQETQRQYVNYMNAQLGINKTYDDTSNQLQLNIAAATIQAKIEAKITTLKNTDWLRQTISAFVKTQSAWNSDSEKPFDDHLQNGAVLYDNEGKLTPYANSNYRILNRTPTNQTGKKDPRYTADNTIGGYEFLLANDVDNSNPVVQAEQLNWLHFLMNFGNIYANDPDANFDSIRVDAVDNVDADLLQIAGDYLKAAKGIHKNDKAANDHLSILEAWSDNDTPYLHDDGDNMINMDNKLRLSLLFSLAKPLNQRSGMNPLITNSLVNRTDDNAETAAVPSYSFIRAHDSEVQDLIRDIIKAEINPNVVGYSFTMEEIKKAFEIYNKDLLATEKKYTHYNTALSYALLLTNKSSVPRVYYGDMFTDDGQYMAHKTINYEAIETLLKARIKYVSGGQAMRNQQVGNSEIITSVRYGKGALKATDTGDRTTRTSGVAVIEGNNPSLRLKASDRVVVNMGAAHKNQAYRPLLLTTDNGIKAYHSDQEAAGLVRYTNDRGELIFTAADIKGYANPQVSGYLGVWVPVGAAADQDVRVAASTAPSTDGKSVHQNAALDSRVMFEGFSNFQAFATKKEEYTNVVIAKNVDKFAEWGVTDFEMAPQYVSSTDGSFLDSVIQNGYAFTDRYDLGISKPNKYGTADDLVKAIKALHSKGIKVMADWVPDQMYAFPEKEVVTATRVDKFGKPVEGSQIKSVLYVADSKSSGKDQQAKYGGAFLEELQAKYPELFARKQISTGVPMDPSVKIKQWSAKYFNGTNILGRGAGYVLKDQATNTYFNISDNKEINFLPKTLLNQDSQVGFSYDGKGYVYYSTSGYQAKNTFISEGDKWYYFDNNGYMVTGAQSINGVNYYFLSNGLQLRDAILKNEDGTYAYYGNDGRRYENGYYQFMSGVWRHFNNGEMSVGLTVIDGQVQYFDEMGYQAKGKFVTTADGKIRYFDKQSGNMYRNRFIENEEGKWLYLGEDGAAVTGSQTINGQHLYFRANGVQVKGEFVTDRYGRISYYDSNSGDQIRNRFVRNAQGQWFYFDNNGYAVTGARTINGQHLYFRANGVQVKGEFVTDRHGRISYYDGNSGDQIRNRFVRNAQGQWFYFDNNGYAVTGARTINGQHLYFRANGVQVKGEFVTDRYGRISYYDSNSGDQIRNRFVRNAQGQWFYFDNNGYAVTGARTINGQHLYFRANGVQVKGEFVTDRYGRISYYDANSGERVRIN

[3] = molecular target: T2, GtfC (Streptococcus mutans, UniProt P13470); assay: as above; format: cell-based; set-up: native GtfC from culture supernatant of S. mutans GtfBD double mutant; details: read-out: % inhibition at 25 μM
Target sequence in this assay (P13470 35-1455): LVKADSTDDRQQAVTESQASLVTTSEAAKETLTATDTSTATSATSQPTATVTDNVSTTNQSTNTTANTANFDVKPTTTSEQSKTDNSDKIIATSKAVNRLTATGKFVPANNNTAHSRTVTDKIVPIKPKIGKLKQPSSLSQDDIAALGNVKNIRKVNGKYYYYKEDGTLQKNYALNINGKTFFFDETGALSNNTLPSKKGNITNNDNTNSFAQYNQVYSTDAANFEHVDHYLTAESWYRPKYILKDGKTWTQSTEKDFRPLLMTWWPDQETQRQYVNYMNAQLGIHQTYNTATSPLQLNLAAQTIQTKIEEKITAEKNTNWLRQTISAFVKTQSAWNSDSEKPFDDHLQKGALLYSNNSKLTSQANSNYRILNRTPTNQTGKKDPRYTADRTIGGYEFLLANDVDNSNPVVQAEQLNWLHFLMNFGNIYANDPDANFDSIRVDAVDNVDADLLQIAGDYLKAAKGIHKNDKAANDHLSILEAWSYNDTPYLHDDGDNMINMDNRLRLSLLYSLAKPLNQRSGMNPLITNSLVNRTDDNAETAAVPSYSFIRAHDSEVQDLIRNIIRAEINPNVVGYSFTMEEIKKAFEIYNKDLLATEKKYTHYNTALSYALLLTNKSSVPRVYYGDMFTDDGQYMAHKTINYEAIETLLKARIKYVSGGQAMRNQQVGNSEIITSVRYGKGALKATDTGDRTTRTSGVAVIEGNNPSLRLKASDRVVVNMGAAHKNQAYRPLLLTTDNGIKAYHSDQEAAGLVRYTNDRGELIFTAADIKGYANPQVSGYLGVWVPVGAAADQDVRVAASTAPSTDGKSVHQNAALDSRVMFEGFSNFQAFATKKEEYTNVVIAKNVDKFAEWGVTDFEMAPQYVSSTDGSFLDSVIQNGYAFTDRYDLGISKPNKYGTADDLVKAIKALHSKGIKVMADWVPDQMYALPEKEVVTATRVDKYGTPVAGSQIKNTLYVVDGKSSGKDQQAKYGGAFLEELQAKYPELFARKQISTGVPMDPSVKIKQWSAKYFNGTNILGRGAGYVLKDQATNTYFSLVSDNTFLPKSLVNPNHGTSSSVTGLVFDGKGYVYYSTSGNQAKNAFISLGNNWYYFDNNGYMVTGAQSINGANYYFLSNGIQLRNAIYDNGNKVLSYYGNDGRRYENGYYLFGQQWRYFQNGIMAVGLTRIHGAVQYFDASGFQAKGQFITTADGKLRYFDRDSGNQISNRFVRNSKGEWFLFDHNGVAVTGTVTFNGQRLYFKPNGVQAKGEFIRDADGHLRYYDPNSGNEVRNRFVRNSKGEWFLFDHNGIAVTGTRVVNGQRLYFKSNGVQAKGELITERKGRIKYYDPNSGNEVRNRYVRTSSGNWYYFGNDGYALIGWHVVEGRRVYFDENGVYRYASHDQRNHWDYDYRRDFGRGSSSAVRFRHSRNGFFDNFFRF

[4] = molecular target: T2, GtfC; assay: Bio-layer interferometry (OctetRed96), […] binding model; supported by zymographic inhibition ([…] at […]); set-up: his-tagged catalytic domain, residues 295 aa–1103 aa
Target sequence in this assay (P13470 295-1103): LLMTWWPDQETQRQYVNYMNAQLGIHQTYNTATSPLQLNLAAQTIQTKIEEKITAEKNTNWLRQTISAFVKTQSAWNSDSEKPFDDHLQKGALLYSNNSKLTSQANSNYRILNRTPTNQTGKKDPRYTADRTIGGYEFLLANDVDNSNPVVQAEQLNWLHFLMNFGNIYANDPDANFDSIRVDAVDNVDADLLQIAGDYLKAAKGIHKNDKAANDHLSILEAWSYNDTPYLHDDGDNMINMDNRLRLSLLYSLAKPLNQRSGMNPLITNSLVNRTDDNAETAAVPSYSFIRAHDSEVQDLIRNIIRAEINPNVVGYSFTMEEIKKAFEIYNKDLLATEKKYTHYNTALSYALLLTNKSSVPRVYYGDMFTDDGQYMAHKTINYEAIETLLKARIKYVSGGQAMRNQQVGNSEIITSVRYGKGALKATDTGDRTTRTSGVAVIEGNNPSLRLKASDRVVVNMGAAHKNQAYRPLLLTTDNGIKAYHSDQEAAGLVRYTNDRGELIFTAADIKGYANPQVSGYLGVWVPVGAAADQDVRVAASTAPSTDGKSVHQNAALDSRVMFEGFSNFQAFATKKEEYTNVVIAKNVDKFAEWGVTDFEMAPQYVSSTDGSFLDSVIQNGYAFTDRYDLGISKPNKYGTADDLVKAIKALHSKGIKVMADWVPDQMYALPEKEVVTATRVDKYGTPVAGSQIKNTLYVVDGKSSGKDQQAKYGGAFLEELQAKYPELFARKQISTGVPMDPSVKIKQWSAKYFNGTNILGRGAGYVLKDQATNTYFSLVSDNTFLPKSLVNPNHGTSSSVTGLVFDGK

[5] = molecular target: T1, GtfB; assay: as above; set-up: his-tagged catalytic domain, residues 268 aa–1074 aa
Target sequence in this assay (P08987 268-1074): as the sequence (P08987 268-1074) above

O=C(Nc1ccccc1)c1cc2cc([N+](=O)[O-])ccc2s1 [#G43-D]
Kd [1]: 68 µM

O=C(c1ccc(F)cc1)c1ccc(-c2[nH]c(-c3ccc([N+](=O)[O-])cc3O)nc2-c2ccccc2)cc1 [#G16]
inhibition at 25 µM [2]: ~60%
inhibition at 25 µM [3]: ~70%

NC(=O)c1ccccc1NC(=O)c1cc2cc([N+](=O)[O-])ccc2s1 [#G43]
Kd [4]: 0.0469 µM
Kd [5]: 3.7 µM
